From US11040106B2, “Conjugates of kinase inhibitors and cyanine dyes” (priority 2018, dated 2021) come the findings set out here.

Series [1] has as its system U87-MG cells. The series can be described thus: Cytotoxicity (cell viability) on U87-MG cells. It counts as cell-based.
Another series has as its system HEPG2 cells. In words: Cytotoxicity (cell viability, MTT assay) on HEPG2 cells. It counts as cell-based. Conditions: HEPG2 cells (liver cancer). As to the method: Approximately 5000 HEPG2 cells/well were seeded on 96 well plate containing 10% fetal bovine serum. Cells were allowed to adhere overnight before test compounds were added. Stock solutions of 1a (0.02 M in DMSO) were diluted with protein-free medium (PFHM-II) to make desired final concentrations varying from 0.01 to 80 μM. The cells were incubated with the desired concentration for 48 h. The cell viabilities were calculated using MTT assay. Briefly, 20 μL of 3-(4,5-dimethylthiazol-2-yl)-2,5-diphenyltetrazolium bromide MTT (5 mg/mL, in Hank's balanced salt solution) were added and the cells were incubated for an additional 3.5 h. The medium was then removed, and […] of DMSO was added to dissolve the formazan crystal formed. The optical density of each well (at 570 nm) was measured with a BioTek Synergy 4 Microplate Reader. The viability of each cell line in response to the treatment with tested compounds was calculated as: % dead cells=100−(OD treated/OD control)×100.

Series [2] relates to U87-MG (Glioblastoma) cells as compared to HUVEC (normal cells). In words: Uptake by U87-MG cells as compared to HUVEC. The class given is cell-based, human.
The test system of the next series is K562 leukemia cells. In words: Cytotoxicity (cell viability) on K562 cells. The class given is cell-based.
Series [3] has as its system MDA-MB-231 “triple negative” breast cancer cells. In words: Cytotoxicity (cell viability) on MDA-MB-231 cells. It counts as cell-based. To be noted: MDA-MB-231 (breast cancer cells).
In series [4] the test system is U87-MG (Glioblastoma) cells. In words: Light and dark toxicity on U87-MG cells. It counts as cell-based, human.
The next series has as its system HUVEC. The series can be described thus: Light and dark toxicity on HUVEC. It counts as cell-based. To be noted: 1 h incubation, 10 minutes irradiation. An excerpt: HUVEC cells are non-carcinogentic, “normal” […] cells.
The nature of a further series: Photophysical properties. It counts as physicochemical.
Series [5] relates to U87-MG cells. The series can be described thus: Cytotoxicity of ICG, MHI-148 and QCy, 72 h in the dark, AlamarBlue. It counts as cell-based, human. The text has this: Cytotoxicity of QCy was studied using U87-MG cells (a glioblastoma multiforme line).
Series [6] relates to U87-MG glioblastoma cells. The series can be described thus: Organelle localization of the fluors (confocal imaging). It counts as cell-based, human. To be noted: 37° C., DMEM/F12 with 10% FBS pH 7.4.
The nature of series [7]: Aggregation: concentration dependence of absorbance spectra. It counts as physicochemical. To be noted: 1.25-20 μM, 10 mM pH 7.4 PBS. As to the method:
FIGS. 37A and 37B show concentration dependence of absorbance spectra in the range 1.25-20 μM in 10 mM pH 7.4 PBS buffer a, (B) MHI-148 and b, (1) QCy.
Shoulders of that kind and indicative of H-aggregates, ie associative oligomers in which the transition moments of the monomers are not well aligned leading to […] (blue) shifts. Concentration dependences of absorbance spectra of QCy and MHI-148 (structurally the closest) were determined to explore H-aggregation further.

The nature of series [8]: Photostability under LED irradiation at 780 nm. Conditions: PBS pH 7.4, LED 780 nm. The class given is physicochemical. As to the method: Initially, equimolar concentrations (20 μM) were used; QCy was reproducibly and more robust than the other two, but the difference was more than anticipated so the experimental design was suspected.
A further series in a line: Solubility in water. It counts as physicochemical. As to the method:
1-NMe2 is water soluble up until 1000 μM whereas 1-CH2 precipitates at 100 μM.

Structures are written as SMILES. “Also recorded” adds a separate entry of the source. Like-named read-outs stand apart in the source and are kept apart here.

In the case of `CC(=O)c1c(C)c2cnc(Nc3ccc(N4CCN(C(=O)CCCCCN5/C(=C/C=C6\CCCC(/C=C/C7=[N+](CCCCCC(=O)[O-])c8ccccc8C7(C)C)=C6Cl)C(C)(C)c6ccccc65)CC4)cn3)nc2n(C2CCCC2)c1=O` [Compound 1b], the “cytotoxicity compared with parent dye, parent kinase inhibitor (and their mixture)” value with U87-MG cells [1] (U87-MG cells (glioblastoma)) is “more found to be toxic than individual 1, b or a combination of 1+b; also recorded: significantly more toxic than the parent dye, the parent kinase inhibitor, or a mixture of the dye and kinase inhibitor”; in the series on HEPG2 cells it was “more found to be toxic than individual 1, b or a combination of 1+b; also recorded: significantly more toxic than the parent dye, the parent kinase inhibitor, or a mixture of the dye and kinase inhibitor”; in the series with K562 leukemia cells, “more found to be toxic than individual 1, b or a combination of 1+b; also recorded: significantly more toxic than the parent dye, the parent kinase inhibitor, or a mixture of the dye and kinase inhibitor”; in [3] it was “more toxic than 1 and b; also recorded: more toxic than b or 1”. Also, the “cytotoxicity compared with ICG-COOH conjugate” value in the series on U87-MG cells [1] (U87-MG, 24 and 48 h) was “more toxic than ICG-COOH-b”. In addition, in [2], the “uptake by U87-MG cells compared to HUVEC” value is recorded as “localizes more in U87-MG cells than HUVEC cells”.
On to `CC1(C)C(=CC=C2CCCC(C=CC3=[N+](CCCCCC(=O)O)c4ccc(I)cc4C3(C)C)=C2Cl)N(CCCCCC(=O)O)c2ccc(I)cc21` [Compound 2aa], for which the “light versus dark toxicity” value in [4] (1, 2, 4 and 6 h incubation, 10 mins irradiation) was “Light toxicity was more than light in every case”; in series [4] (1 h incubation, irradiation 5, 10, 15, 20 minutes), “kills the cells more in light than in dark”. The “uptake by U87-MG cells compared to HUVEC” value in [2] was “the cancer cells uptake more of the compound”. In addition, the “phototoxic effect on normal cells” value in the series on HUVEC is on record as “does not significantly kill normal cells”.
One may read the IC50 as the point on the concentration scale where inhibition reaches its midpoint. Low values mean inhibition by little substance, high ones a need for much substance. For `CC1(C)C(=CC=C2C[N+](C)(C)CC(C=CC3=[N+](CCCCCC(=O)O)c4ccccc4C3(C)C)=C2Cl)N(CCCCCC(=O)O)c2ccccc21` [QCy], the “fluorescence quantum yield relative to ICG” value in the series “Photophysical properties” is reported as “about three times greater”. In “Photophysical properties” (5 μM, 10 mM pH 7.4 PBS), the “absorbance of equimolar solutions” value is “greater absorbance than ICG or MHI-148” and the “fluorescence brightness of equimolar solutions” value is given as “markedly higher than the other two fluors”. Also, in “Photophysical properties” (10 mM PBS buffer pH 7.4), the “brightness (εmax × Φ)” value was 9901 and the εmax came to 192460 cm^−1M^−1. The “brightness compared with 1-CH2 (in words)” value in the series “Photophysical properties” (PBS buffer) is on record as “brighter dye than 1-CH2”. Also, in “Photophysical properties” (PBS, pH 7.4), the “brightness relative to 1-CH2” value was determined as 2 × and the “quantum yield relative to 1-CH2” value came out at 2 ×. In addition, the “shift of absorbance and fluorescence maxima to shorter wavelengths” value in “Photophysical properties” (compared with ICG and 1-CH2) is recorded as roughly 30 nm. Moreover, the “extinction coefficient compared with 1-CH2 (in words)” value in “Photophysical properties” (in PBS buffer and in water) is reported as “stronger extinction coefficient than 1-CH2”. For the same molecule, the “extinction coefficient relative to 1-CH2” value in “Photophysical properties” (in water) is roughly 3 ×. In the series with U87-MG cells [5], the IC50 was greater than 80 µM and the “cytotoxicity (in words)” value is “not very toxic until 80 μM”. Besides, in series [6] (0.5 h), the “localization after time (h) 0.5” value is reported as “golgi”. For the same molecule, the “localization after time (h) 24” value in [6] (24 h) was “lysosome and ER”. Further, the “aggregation (H-aggregates) in aqueous media” value in series [7] is recorded as “less prone to aggregation in aqueous media than MHI-148; also recorded: considerably less aggregated than MHI-148”. Moreover, in [8], the “photostability (in words)” value is given as “almost no decomposition after 1 h continuous illumination; also recorded: the most photostable”. For the same molecule, the “photostability (in words)” value in series [8] (listed as 1-NMe2) is reported as “more stable than 1-CH2; also recorded: significantly more photostable than 1-CH2 or ICG”. Besides, in the series “Solubility in water”, the “water solubility (in words)” value is listed as “more water soluble than MHI-148” and the “water soluble up until (concentration)” value was no more than 1000 µM. For the same molecule, the “water solubility (in words)” value in “Solubility in water” (listed as 1-NMe2) was “significantly more soluble in water than 1-CH2”.
